Common to all, as to test: ≥ marks a high value that may be exact or a test limit, other limits are often not marked, values filed in µg/mL are converted to µM
For assay [1], the system named is Staphylococcus aureus ATCC 29213.
For assay [2], the system named is Escherichia coli ATCC 25922.
Assay [3] deals with Pseudomonas aeruginosa ATCC 27853.
Assay [4] has as its system Staphylococcus aureus ATCC 25923.

Values after ≈ are worked out from the molar mass of the structure shown.

As a reminder, the MIC is the smallest concentration in the dilution series that meets the test's criterion for growth inhibition. Lower therefore signals inhibition by little substance. On to `CC[C@H](C)[C@H](NC(=O)[C@@H](N)Cc1ccccc1)C(=O)N[C@@H](CC(C)C)C(=O)N[C@@H](CCCCN)C(=O)N[C@@H](CCCN=C(N)N)C(=O)N[C@@H](CO)C(=O)N[C@@H](Cc1ccc(O)cc1)C(=O)N1CCC[C@H]1C(=O)N[C@@H](CCC(N)=O)C(=O)N[C@@H](Cc1ccc(O)cc1)C(=O)N[C@@H](Cc1ccc(O)cc1)C(N)=O` [FILKRSYPQYY], for which the MIC in assay [1] was greater than 474 µM; in assay [2], 406 µM (≈ 600 µg/mL).

Take `CC[C@H](C)[C@H](NC(=O)[C@H](CCCN=C(N)N)NC(=O)[C@H](CCC(N)=O)NC(=O)[C@H](Cc1cnc[nH]1)NC(=O)[C@@H](NC(=O)[C@H](CCCN=C(N)N)NC(=O)[C@H](CCCCN)NC(=O)[C@@H](N)Cc1ccccc1)[C@@H](C)CC)C(=O)N[C@@H](CCCCN)C(=O)N[C@@H](CC(=O)O)C(=O)N[C@@H](Cc1ccccc1)C(=O)N[C@@H](CC(C)C)C(=O)N[C@@H](CCCN=C(N)N)C(=O)O` [FKRIHQRIKDFLR]: the MIC was greater than 40 µM in assay [1] and 5 µM (≈ 8.79 µg/mL) in assay [2].

On to `CC[C@H](C)[C@H](NC(=O)[C@H](CCCN=C(N)N)NC(=O)[C@H](CCC(N)=O)NC(=O)[C@@H](NC(=O)[C@H](CCC(N)=O)NC(=O)[C@H](CCCN=C(N)N)NC(=O)[C@H](CCCCN)NC(=O)[C@@H](N)Cc1ccccc1)C(C)C)C(=O)N[C@@H](CCCCN)C(=O)N[C@@H](CC(=O)O)C(=O)N[C@@H](Cc1ccccc1)C(=O)N[C@@H](CC(C)C)C(=O)N[C@@H](CCCN=C(N)N)C(=O)O` [FKRQVQRIKDFLR], for which the MIC in assay [1] was greater than 40 µM; in assay [2], 10 µM (≈ 17.3 µg/mL).

For the compound `NCC(=O)N[C@@H](CCCN=C(N)N)C(=O)N[C@@H](CCCN=C(N)N)C(=O)N1CCC[C@H]1C(=O)N[C@@H](CCCN=C(N)N)C(=O)N1CCC[C@H]1C(=O)N[C@@H](CCCN=C(N)N)C(=O)N1CCC[C@H]1C(=O)N[C@@H](CCCN=C(N)N)C(=O)N1CCC[C@H]1C(=O)N[C@@H](Cc1ccccc1)C(=O)N[C@@H](Cc1ccccc1)C(=O)N[C@@H](Cc1ccccc1)C(=O)N[C@@H](Cc1ccccc1)C(=O)N[C@@H](Cc1ccccc1)C(=O)O` [GRRPRPRPRPFFFFF], the minimum inhibitory concentration (MIC) in assay [1] amounted to 2.5 µM (≈ 4.95 µg/mL); in assay [2], 20 µM (≈ 39.6 µg/mL); in assay [3] it was 20 µM (≈ 39.6 µg/mL).

`CC[C@H](C)[C@H](NC(=O)[C@@H](NC(=O)[C@H](CCCCN)NC(=O)[C@@H](NC(=O)[C@H](C)NC(=O)[C@@H](NC(=O)[C@H](Cc1cnc[nH]1)NC(=O)CNC(=O)[C@H](C)NC(=O)[C@H](CC(C)C)NC(=O)[C@H](CC(=O)O)NC(=O)[C@H](CCCCN)NC(=O)[C@H](C)NC(=O)[C@H](C)NC(=O)CNC(=O)[C@H](CCCCN)NC(=O)[C@H](CC(C)C)NC(=O)[C@@H](NC(=O)[C@H](CC(=O)O)NC(=O)[C@H](CC(C)C)NC(=O)[C@@H](NC(=O)CN)C(C)C)[C@@H](C)CC)C(C)C)[C@@H](C)O)C(C)C)C(=O)O` [GVLDILKGAAKDLAGHVATKVI]: the MIC in assay [1] was 14.6 µM (≈ 32 µg/mL); in assay [2], 3.6 µM (≈ 7.88 µg/mL).

`CC(C)C[C@H](NC(=O)[C@H](Cc1c[nH]c2ccccc12)NC(=O)[C@H](CCCCN)NC(=O)[C@H](CCCCN)NC(=O)[C@H](C)NC(=O)[C@H](CO)NC(=O)[C@H](Cc1cnc[nH]1)NC(=O)[C@H](CC(C)C)NC(=O)[C@H](Cc1ccccc1)NC(=O)[C@H](CCCCN)NC(=O)[C@@H](N)CCCCN)C(=O)N[C@@H](CCCCN)C(=O)N[C@@H](C)C(=O)N[C@@H](Cc1ccccc1)C(=O)N[C@H](C(=O)N[C@@H](CCCCN)C(=O)N[C@@H](CC(C)C)C(=O)N[C@@H](Cc1ccccc1)C(=O)N[C@@H](CCCCN)C(=O)N[C@@H](CC(N)=O)C(=O)N[C@@H](Cc1c[nH]c2ccccc12)C(=O)O)C(C)C` [KKFLHSAKKWLKAFVKLFKNW]: in assay [1], the MIC was 9.44 µM (≈ 25 µg/mL).

Consider `CC(=O)N[C@@H](CCCCN)C(=O)N[C@@H](CC(C)C)C(=O)N[C@@H](CC(C)C)C(=O)N[C@@H](CCCCN)C(=O)N[C@@H](CC(C)C)C(=O)N[C@@H](CC(C)C)C(=O)N[C@@H](CCCCN)C(=O)N[C@@H](CCCCN)C(=O)N[C@@H](CC(C)C)C(=O)N[C@@H](CC(C)C)C(=O)N[C@@H](CCCCN)C(=O)N[C@@H](CC(C)C)C(=O)N[C@@H](CC(C)C)C(=O)N[C@@H](CCCCN)C(N)=O` [KLLKLLKKLLKLLK], for which the MIC in assay [1] worked out at 14.1 µM (≈ 24.5 µg/mL); in assay [2] it was 20 µM (≈ 34.7 µg/mL).

As to `CC(C)C[C@H](NC(=O)[C@H](CCCCN)NC(=O)[C@H](CC(C)C)NC(=O)[C@H](CC(C)C)NC(=O)[C@H](CCCCN)NC(=O)[C@H](CCCCN)NC(=O)[C@H](CCCCN)NC(=O)[C@H](CC(C)C)NC(=O)[C@H](CCCCN)NC(=O)[C@H](CC(C)C)NC(=O)[C@H](CC(C)C)NC(=O)[C@H](CCCCN)NC(=O)[C@H](CCCCN)NC(=O)[C@@H](N)CC(C)C)C(=O)N[C@@H](C)C(=O)NCC(=O)O` [LKKLLKLKKKLLKLAG], the minimum inhibitory concentration (MIC) in assay [1] is greater than 40 µM; in assay [2], 5 µM (≈ 9.18 µg/mL).

In the case of `CC(C)C[C@H](NC(=O)[C@H](CCCCN)NC(=O)[C@H](CC(C)C)NC(=O)[C@H](CC(C)C)NC(=O)[C@H](CCCCN)NC(=O)[C@H](CCCCN)NC(=O)[C@H](CC(N)=O)NC(=O)[C@H](CC(C)C)NC(=O)[C@H](CCCCN)NC(=O)[C@H](CC(C)C)NC(=O)[C@H](CC(C)C)NC(=O)[C@H](CCCCN)NC(=O)[C@H](CCCCN)NC(=O)[C@@H](N)CC(C)C)C(=O)N[C@@H](C)C(=O)NCC(=O)O` [LKKLLKLNKKLLKLAG], the MIC in assay [1] was greater than 40 µM; in assay [2], 2.5 µM (≈ 4.55 µg/mL).

Consider `CC(C)[C@H](NC(=O)[C@H](Cc1c[nH]c2ccccc12)NC(=O)[C@H](CCCCN)NC(=O)[C@@H](N)CCCN=C(N)N)C(=O)N[C@@H](C)C(=O)N[C@@H](Cc1c[nH]c2ccccc12)C(=O)N[C@@H](CCCN=C(N)N)C(=O)N[C@@H](CC(N)=O)C(=O)N[C@@H](CCCN=C(N)N)C(=O)O` [RKWVAWRNR], for which the MIC amounted to 49.2 µM (≈ 62.5 µg/mL) in assay [1] and 98.3 µM (≈ 125 µg/mL) in assay [2].

`NC(=O)[C@H](Cc1ccccc1)NC(=O)[C@H](Cc1ccccc1)NC(=O)[C@H](Cc1ccccc1)NC(=O)[C@H](Cc1ccccc1)NC(=O)[C@H](Cc1ccccc1)NC(=O)[C@@H]1CCCN1C(=O)[C@H](CCCN=C(N)N)NC(=O)[C@@H]1CCCN1C(=O)[C@H](CCCN=C(N)N)NC(=O)[C@@H]1CCCN1C(=O)[C@H](CCCN=C(N)N)NC(=O)[C@@H]1CCCN1C(=O)[C@H](CCCN=C(N)N)NC(=O)[C@@H](N)CCCN=C(N)N` [RRPRPRPRPFFFFF]: the minimal inhibitory concentration (MIC) stood at 10 µM (≈ 19.2 µg/mL) in assay [1], 10 µM (≈ 19.2 µg/mL) in assay [2] and 20 µM (≈ 38.4 µg/mL) in assay [3].

For the compound `NC(=O)[C@H](Cc1c[nH]c2ccccc12)NC(=O)[C@H](Cc1c[nH]c2ccccc12)NC(=O)[C@H](Cc1c[nH]c2ccccc12)NC(=O)[C@@H]1CCCN1C(=O)[C@H](CCCN=C(N)N)NC(=O)[C@@H]1CCCN1C(=O)[C@H](CCCN=C(N)N)NC(=O)[C@@H]1CCCN1C(=O)[C@H](CCCN=C(N)N)NC(=O)[C@@H]1CCCN1C(=O)[C@H](CCCN=C(N)N)NC(=O)[C@@H](N)CCCN=C(N)N` [RRPRPRPRPWWW], the MIC came out at 40 µM (≈ 69.8 µg/mL) in assay [1], 40 µM (≈ 69.8 µg/mL) in assay [2] and 20 µM (≈ 34.9 µg/mL) in assay [3].

`CC[C@H](C)[C@H](NC(=O)CNC(=O)[C@@H](N)CO)C(=O)N[C@@H](CCC(N)=O)C(=O)N1CCC[C@H]1C(=O)N[C@@H](CCC(=O)O)C(=O)N[C@@H](CCC(N)=O)C(=O)N[C@@H](Cc1cnc[nH]1)C(=O)N[C@@H](CO)C(=O)N[C@@H](CO)C(N)=O` [SGIQPEQHSS]: the minimum inhibitory concentration (MIC) in assay [4], in assay [2] and in assay [3] was greater than 100 µM throughout.

With `CC(C)[C@H](NC(=O)[C@H](Cc1ccc(O)cc1)NC(=O)[C@H](CO)NC(=O)[C@H](CCCCN)NC(=O)[C@@H](N)Cc1c[nH]c2ccccc12)C(=O)N[C@@H](CCCN=C(N)N)C(=O)N[C@@H](CCCN=C(N)N)C(=O)N[C@@H](Cc1c[nH]c2ccccc12)C(=O)N[C@@H](CCCN=C(N)N)C(=O)N[C@@H](CO)C(=O)N[C@@H](CCCN=C(N)N)C(=O)N[C@@H](Cc1ccc(O)cc1)C(N)=O` [WKSYVRRWRSRY], the minimum inhibitory concentration (MIC) in assay [4] is 32 µM (≈ 55.7 µg/mL); in assay [2], 16 µM (≈ 27.9 µg/mL); in assay [3], 100 µM (≈ 174 µg/mL).

With `CC(C)[C@H](NC(=O)[C@H](Cc1ccc(O)cc1)NC(=O)[C@H](CO)NC(=O)[C@H](CCCCN)NC(=O)[C@@H](N)Cc1c[nH]c2ccccc12)C(=O)N[C@@H](CCCN=C(N)N)C(=O)N[C@@H](CCCN=C(N)N)C(=O)N[C@@H](Cc1c[nH]c2ccccc12)C(=O)N[C@@H](CCCN=C(N)N)C(=O)N[C@@H](CO)C(=O)N[C@@H](CCCN=C(N)N)C(N)=O` [WKSYVRRWRSR], the MIC in assay [4] was 32 µM (≈ 50.5 µg/mL); in assay [2], 16 µM (≈ 25.3 µg/mL); in assay [3] it was greater than 100 µM.

Regarding `CC(C)[C@H](NC(=O)[C@H](Cc1ccc(O)cc1)NC(=O)[C@H](CO)NC(=O)[C@H](CCCCN)NC(=O)[C@@H](N)Cc1c[nH]c2ccccc12)C(=O)N[C@@H](CCCN=C(N)N)C(=O)N[C@@H](CCCN=C(N)N)C(=O)N[C@@H](Cc1c[nH]c2ccccc12)C(=O)N[C@@H](CCCN=C(N)N)C(=O)N[C@@H](CO)C(N)=O` [WKSYVRRWRS], the MIC was greater than 100 µM in assay [4], 64 µM (≈ 91.1 µg/mL) in assay [2] and greater than 100 µM in assay [3].

For the compound `CSCC[C@H](NC(=O)[C@H](CCCN=C(N)N)NC(=O)[C@@H](N)Cc1ccc(O)cc1)C(=O)N[C@@H](Cc1c[nH]c2ccccc12)C(=O)N[C@@H](CCCN=C(N)N)C(=O)N[C@@H](Cc1c[nH]c2ccccc12)C(=O)N[C@@H](CCCN=C(N)N)C(=O)N[C@@H](Cc1c[nH]c2ccccc12)C(=O)N[C@@H](CCCN=C(N)N)C(=O)N[C@@H](Cc1c[nH]c2ccccc12)C(=O)N[C@@H](CCCN=C(N)N)C(N)=O` [YRMWRWRWRWR], the MIC was found to be 2.72 µM (≈ 5 µg/mL) in assay [4], 4.08 µM (≈ 7.5 µg/mL) in assay [2] and 10.9 µM (≈ 20 µg/mL) in assay [3].

For the origin of these results see DBAASP.
